Measured values as given in article PMC3961306, “Comparison of the Cancer Gene Targeting and Biochemical Selectivities of All Targeted Kinase Inhibitors Approved for Clinical Use” (PLoS ONE, 2014).
Where two headings read alike, the source gives them in different places.

Legend:
[1] = tested on: forty-four human cancer cell lines; test: Cell proliferation assay (ATPlite, 72 hours) in the 44 cell line Oncolines panel; format: cell-based; conditions: Homo sapiens
[2] = biological target: T1, panel of more than 300 wild-type and mutant kinases (313 kinase panel) (Homo sapiens, UniProt Q16832); test: Kinase profiling in a biochemical assay panel (mobility shift assays and ELISA), %-inhibition at 1 μM; selectivity entropy; conditions: kinase DDR2; compound at 1 μM
T1 sequence (Q16832 22-855): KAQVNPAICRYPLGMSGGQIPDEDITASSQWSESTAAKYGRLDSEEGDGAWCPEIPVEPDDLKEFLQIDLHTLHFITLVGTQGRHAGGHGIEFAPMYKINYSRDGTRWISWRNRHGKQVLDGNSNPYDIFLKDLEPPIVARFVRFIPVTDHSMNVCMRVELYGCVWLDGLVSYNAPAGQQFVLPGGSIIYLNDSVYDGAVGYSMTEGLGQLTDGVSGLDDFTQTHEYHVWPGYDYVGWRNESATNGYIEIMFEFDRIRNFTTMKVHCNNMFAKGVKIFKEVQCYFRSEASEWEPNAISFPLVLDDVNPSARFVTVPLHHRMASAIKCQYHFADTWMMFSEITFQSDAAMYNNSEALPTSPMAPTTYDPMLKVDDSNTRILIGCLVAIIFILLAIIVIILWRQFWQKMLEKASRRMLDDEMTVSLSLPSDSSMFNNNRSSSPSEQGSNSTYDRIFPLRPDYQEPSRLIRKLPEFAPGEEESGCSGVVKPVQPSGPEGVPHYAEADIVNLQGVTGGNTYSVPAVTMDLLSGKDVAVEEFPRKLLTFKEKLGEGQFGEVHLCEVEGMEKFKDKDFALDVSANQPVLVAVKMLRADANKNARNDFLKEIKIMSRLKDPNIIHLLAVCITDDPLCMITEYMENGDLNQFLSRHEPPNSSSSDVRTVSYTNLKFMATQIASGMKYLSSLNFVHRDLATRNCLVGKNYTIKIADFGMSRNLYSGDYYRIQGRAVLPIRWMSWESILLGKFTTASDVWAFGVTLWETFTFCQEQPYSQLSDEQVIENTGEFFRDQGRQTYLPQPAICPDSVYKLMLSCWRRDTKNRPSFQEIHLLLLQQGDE

[3] = biological target: panel of more than 300 wild-type and mutant kinases (313 kinase panel) (Homo sapiens, UniProt Q8TDX7); test: as above; conditions: kinase NEK7; 1 μM
[4] = A 172, read-out: cell panel IC50, A-172
[5] = A498, read-out: cell panel IC50, A-498
[6] = A549, read-out: cell panel IC50, A-549
[7] = A-427, read-out: cell panel IC50, A-427
[8] = AU565, read-out: cell panel IC50, AU-565
[9] = BT-549, read-out: cell panel IC50, BT-549
[10] = HCT-116, read-out: cell panel IC50, HCT-116
[11] = K562, read-out: cell panel IC50, K-562
[12] = LS174T, read-out: cell panel IC50, LS 174T

Work on `CC(C)(C)c1nc(-c2cccc(NS(=O)(=O)c3c(F)cccc3F)c2F)c(-c2ccnc(N)n2)s1` [dabrafenib] yielded an IC50 [1, 4] of 3.5 µM, an IC50 ([1]; A204, cell line A-204, read-out: cell panel IC50, A-204) of 4.69 µM and an IC50 [1, 5] of 2.28 µM. It also gave an IC50 [1, 6] of 4.12 µM, an IC50 ([1]; A-375, cell line A375, read-out: cell panel IC50, A375) of 0.026 µM and an IC50 [1, 7] of 3.45 µM. It also gave an IC50 [1, 8] of 5.92 µM, an IC50 [1, 9] of 5.73 µM and an IC50 [1, 10] of 0.85 µM. The IC50 [1, 11] was 13.5 µM, the IC50 [1, 12] was > 31.6 µM and the IC50 ([1]; SHP77, cell line SHP-77, read-out: cell panel IC50, SHP-77) was 28.9 µM. For the same molecule, the IC50 ([1]; SW-620, cell line SW620, read-out: cell panel IC50, SW620) was 2.47 µM, the IC50 ([1]; U2OS, cell line U-2 OS, read-out: cell panel IC50, U-2 OS) was > 31.6 µM and the IC50 ([1]; cell line J82, read-out: cell panel IC50, J82) was > 31.6 µM. For the same molecule, the IC50 ([1]; cell line PA-1, read-out: cell panel IC50, PA-1) was 2.11 µM, the IC50 ([1]; cell line SJCRH30, read-out: cell panel IC50, SJCRH30) was > 31.6 µM and the IC50 ([1]; cell line SR, read-out: cell panel IC50, SR) was 2.12 µM. The IC50 ([1]; U-87 MG cell line, ATPlite, 72 hours, read-out: IC50 in cell proliferation assay (table S5 cellpanel data)) was > 31.6 µM, the IC50 ([1]; cell line 769-P, read-out: cell panel IC50, 769-P) was 10.9 µM and the IC50 ([1]; cell line 786-0, read-out: cell panel IC50, 786-0) was 3.3 µM. The IC50 ([1]; cell line ACHN, read-out: cell panel IC50, ACHN) was 1.15 µM, the IC50 ([1]; cell line AN3 CA, read-out: cell panel IC50, AN3 CA) was > 31.6 µM and the IC50 ([1]; cell line BT-20, read-out: cell panel IC50, BT-20) was > 31.6 µM. The IC50 ([1]; cell line BxPC-3, read-out: cell panel IC50, BxPC-3) was 2.68 µM, the IC50 ([1]; cell line C-33 A, read-out: cell panel IC50, C-33 A) was 3.31 µM and the IC50 ([1]; cell line CAL 27, read-out: cell panel IC50, CAL 27) was 30.8 µM. For the same molecule, the IC50 ([1]; cell line CCRF-CEM, read-out: cell panel IC50, CCRF-CEM) was > 31.6 µM, the IC50 ([1]; cell line DLD-1, read-out: cell panel IC50, DLD-1) was 3.92 µM and the IC50 ([1]; cell line FaDu, read-out: cell panel IC50, FaDu) was 4.38 µM. For the same molecule, the IC50 ([1]; cell line HCT-15, read-out: cell panel IC50, HCT-15) was 3.33 µM, the IC50 ([1]; cell line Hs 578T, read-out: cell panel IC50, Hs 578T) was 11.5 µM and the IC50 ([1]; cell line Jurkat E6.1, read-out: cell panel IC50, Jurkat E6.1) was 3.12 µM. The IC50 ([1]; cell line LoVo, read-out: cell panel IC50, LoVo) was 1.86 µM, the IC50 ([1]; cell line MG-63, read-out: cell panel IC50, MG-63) was > 31.6 µM and the IC50 ([1]; cell line MOLT-4, read-out: cell panel IC50, MOLT-4) was 29.1 µM. For the same molecule, the IC50 ([1]; cell line MeWo, read-out: cell panel IC50, MeWo) was 6.49 µM, the IC50 ([1]; cell line NCI-H82, read-out: cell panel IC50, NCI-H82) was 2.54 µM and the IC50 ([1]; cell line NCI-H460, read-out: cell panel IC50, NCI-H460) was 2.98 µM. For the same molecule, the IC50 ([1]; cell line OVCAR-3, read-out: cell panel IC50, OVCAR-3) was 5.26 µM, the IC50 ([1]; cell line RPMI-7951, read-out: cell panel IC50, RPMI-7951) was 0.024 µM and the IC50 ([1]; cell line SK-N-AS, read-out: cell panel IC50, SK-N-AS) was 3.55 µM. For the same molecule, the IC50 ([1]; cell line SW48, read-out: cell panel IC50, SW48) was 10.6 µM, the IC50 ([1]; cell line SW480, read-out: cell panel IC50, SW480) was 16.6 µM and the “%-inhibition of DDR2” value [2] was 100%. For the same molecule, the “%-inhibition of NEK7” value [3] was 2.28%.
With `CCN(CC)CCNC(=O)c1c(C)[nH]c(/C=C2\C(=O)Nc3ccc(F)cc32)c1C` [sunitinib] the IC50 ([1]; 4-4 cell, read-out: cell panel IC50, J82) was 3.5 µM, the IC50 ([1]; 4-4 cell, read-out: cell panel IC50, PA-1) was 1.31 µM and the IC50 ([1]; 4-4 cell, read-out: cell panel IC50, SJCRH30) was 3.14 µM. It also gave an IC50 ([1]; 4-4 cell, read-out: cell panel IC50, SR) of 0.527 µM, an IC50 ([1]; 769-P, read-out: cell panel IC50, 769-P) of 2.66 µM and an IC50 ([1]; 786-0, read-out: cell panel IC50, 786-0) of 2.62 µM. It also gave an IC50 [1, 4] of 3.28 µM, an IC50 ([1]; A204, read-out: cell panel IC50, A-204) of 4.08 µM and an IC50 [1, 5] of 1.97 µM. It also gave an IC50 [1, 6] of 2.26 µM, an IC50 ([1]; A-375, read-out: cell panel IC50, A375) of 1.55 µM and an IC50 [1, 7] of 1.06 µM. It also gave an IC50 ([1]; ACHN, read-out: cell panel IC50, ACHN) of 1.32 µM, an IC50 ([1]; AN3-CA, read-out: cell panel IC50, AN3 CA) of 1.51 µM and an IC50 [1, 8] of 3.96 µM. The IC50 ([1]; BT-20, read-out: cell panel IC50, BT-20) was 13.2 µM, the IC50 [1, 9] was 4.84 µM and the IC50 ([1]; BXPC-3, read-out: cell panel IC50, BxPC-3) was 2.29 µM. It also gave an IC50 ([1]; C-33-A, read-out: cell panel IC50, C-33 A) of 1.98 µM, an IC50 ([1]; CAL-27, read-out: cell panel IC50, CAL 27) of 3.08 µM and an IC50 ([1]; CCRF-CEM, read-out: cell panel IC50, CCRF-CEM) of 3.21 µM. The IC50 ([1]; DLD-1, read-out: cell panel IC50, DLD-1) was 3.13 µM, the IC50 ([1]; FaDu, read-out: cell panel IC50, FaDu) was 2 µM and the IC50 ([1]; HCT-15, read-out: cell panel IC50, HCT-15) was 2.11 µM. For the same molecule, the IC50 [1, 10] was 2.68 µM, the IC50 ([1]; Hs-578T, read-out: cell panel IC50, Hs 578T) was 3.48 µM and the IC50 ([1]; Jurkat E6.1, read-out: cell panel IC50, Jurkat E6.1) was 1.06 µM. For the same molecule, the IC50 [1, 11] was 2.09 µM, the IC50 [1, 12] was 3.52 µM and the IC50 ([1]; LoVo, read-out: cell panel IC50, LoVo) was 0.962 µM. For the same molecule, the IC50 ([1]; MG-63, read-out: cell panel IC50, MG-63) was 3.37 µM, the IC50 ([1]; MOLT-4, read-out: cell panel IC50, MOLT-4) was 0.828 µM and the IC50 ([1]; MeWo, read-out: cell panel IC50, MeWo) was 3.42 µM. It also gave an IC50 ([1]; NCI-H82, read-out: cell panel IC50, NCI-H82) of 2.28 µM, an IC50 ([1]; NCI-H460, read-out: cell panel IC50, NCI-H460) of 3.43 µM and an IC50 ([1]; OVCAR-3, read-out: cell panel IC50, OVCAR-3) of 8.63 µM. It also gave an IC50 ([1]; RPMI-7951, read-out: cell panel IC50, RPMI-7951) of 3.67 µM, an IC50 ([1]; SHP77, read-out: cell panel IC50, SHP-77) of 5.7 µM and an IC50 ([1]; SK-N-AS, read-out: cell panel IC50, SK-N-AS) of 1.86 µM. It also gave an IC50 ([1]; SW48, read-out: cell panel IC50, SW48) of 3.7 µM, an IC50 ([1]; SW480, read-out: cell panel IC50, SW480) of 5.65 µM and an IC50 ([1]; SW-620, read-out: cell panel IC50, SW620) of 2.54 µM. The IC50 ([1]; U-87 MG, 72 h, read-out: IC50 in cell proliferation assay (table S5 cellpanel data)) was 5.75 µM.
